Test results reported in US9181239B2, “Pyridopyrimidinone inhibitors of kinases” (AbbVie Inc., priority 2011, dated 2015).

Biological target: T1, Wee1 kinase (Homo sapiens, UniProt P30291)
T1 construct: purchased Carnabio 05-177
Test: Wee1 time-resolved fluorescence equilibrium binding assay (probe displacement)
Conditions: GST-tagged-Wee1 kinase 2 nM, fluorescent probe 300 nM, 1 hour incubation; read-out: Wee-1 binding (Ki nM)
Procedure: Wee1 kinase was assayed using a time-resolved fluorescence equilibrium binding assay monitoring displacement of a rapidly reversible Oregon Green-labeled ATP-competitive kinase probe (N-(2-(2-(2-(4-(4-(5-chloro-4-(2-(1-hydroxycyclobutyl)thiazol-5-yl)-1H-pyrrolo[2,3-b]pyridin-2-yl)phenyl)piperazin-1-yl)ethoxy)ethoxy)ethyl)-2′,7′-difluoro-3′,6′-dihydroxy-3-oxo-3H-spiro[isobenzofuran-1,9′-xanthene]-5-carboxamide) by competitive Wee1 inhibitors.

T1 sequence (P30291 whole entry): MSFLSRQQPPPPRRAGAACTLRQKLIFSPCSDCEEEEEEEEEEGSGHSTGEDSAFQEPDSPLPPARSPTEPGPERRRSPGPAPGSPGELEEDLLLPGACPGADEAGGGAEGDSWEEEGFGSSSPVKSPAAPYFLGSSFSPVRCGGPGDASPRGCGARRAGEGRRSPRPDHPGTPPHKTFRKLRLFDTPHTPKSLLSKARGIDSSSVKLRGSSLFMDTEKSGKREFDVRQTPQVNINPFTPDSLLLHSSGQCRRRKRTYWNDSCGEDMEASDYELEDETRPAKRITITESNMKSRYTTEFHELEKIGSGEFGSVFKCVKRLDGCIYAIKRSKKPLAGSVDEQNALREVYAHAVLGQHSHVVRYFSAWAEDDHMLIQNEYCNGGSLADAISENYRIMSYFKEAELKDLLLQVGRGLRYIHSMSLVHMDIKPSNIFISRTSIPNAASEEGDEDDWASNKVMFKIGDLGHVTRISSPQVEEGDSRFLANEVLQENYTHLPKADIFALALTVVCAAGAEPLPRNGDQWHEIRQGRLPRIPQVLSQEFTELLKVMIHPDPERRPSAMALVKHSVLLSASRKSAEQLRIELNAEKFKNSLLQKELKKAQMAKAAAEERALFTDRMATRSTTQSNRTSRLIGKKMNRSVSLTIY

Row | Structure (SMILES) | Ki
1 | O=c1c(-c2c(Cl)cccc2Cl)c[nH]c2nc(Nc3ccc4c(c3)CNCC43CC3)ncc12 [Example 43, 6-(2,6-dichlorophenyl)-2-(2′,3′-dihydro-1′H-spiro[cyclopropane-1,4′-isoquinolin]-7′-ylamino)pyrido[2,3-d]pyrimidin-5(8H)-one] | 0.3 nM
2 | Cn1cc(-c2c(Cl)cccc2Cl)c(=O)c2cnc(Nc3ccc(NC4CCNCC4)cc3)nc21 [Example 66, 6-(2,6-dichlorophenyl)-8-methyl-2-{[4-(piperidin-4-ylamino)phenyl]amino}pyrido[2,3-d]pyrimidin-5(8H)-one] | 0.4 nM
3 | CN1CCN(c2ccc(Nc3ncc4c(=O)c(-c5c(Cl)cccc5Cl)cn(C)c4n3)cc2)CC1 [Example 8, 6-(2,6-dichlorophenyl)-8-methyl-2-{[4-(4-methylpiperazin-1-yl)phenyl]amino}pyrido[2,3-d]pyrimidin-5(8H)-one] | 0.3 nM
4 | CN1CCC(c2ccc(Nc3ncc4c(=O)c(-c5c(Cl)cccc5Cl)cn(C)c4n3)cc2)CC1 [Example 50, 6-(2,6-dichlorophenyl)-8-methyl-2-{[4-(1-methylpiperidin-4-yl)phenyl]amino}pyrido[2,3-d]pyrimidin-5(8H)-one] | 0.9 nM
5 | CC(C)n1cc(-c2c(Cl)cccc2Cl)c(=O)c2cnc(Nc3ccc(N4CCN(C)CC4)cc3)nc21 [Example 26, 6-(2,6-dichlorophenyl)-2-{[4-(4-methylpiperazin-1-yl)phenyl]amino}-8-(propan-2-yl)pyrido[2,3-d]pyrimidin-5(8H)-one] | 1.2 nM
6 | Cn1cc(-c2c(Cl)cccc2Cl)c(=O)c2cnc(Nc3ccc4c(c3)CNCC4(C)C)nc21 [Example 47, 6-(2,6-dichlorophenyl)-2-[(4,4-dimethyl-1,2,3,4-tetrahydroisoquinolin-7-yl)amino]-8-methylpyrido[2,3-d]pyrimidin-5(8H)-one] | 0.6 nM
7 | COc1ccc(Cn2cc(-c3c(F)cccc3Cl)c(=O)c3cnc(Nc4ccc(N5CCN(C)CC5)cc4)nc32)cc1 [Example 35, 6-(2-chloro-6-fluorophenyl)-8-(4-methoxybenzyl)-2-{[4-(4-methylpiperazin-1-yl)phenyl]amino}pyrido[2,3-d]pyrimidin-5(8H)-one] | 66 nM
8 | Cn1cc(-c2c(Cl)cccc2Cl)c(=O)c2cnc(Nc3ccc4c(c3)CNCC43CC3)nc21 [Example 21, 6-(2,6-dichlorophenyl)-2-(2′,3′-dihydro-1′H-spiro[cyclopropane-1,4′-isoquinolin]-7′-ylamino)-8-methylpyrido[2,3-d]pyrimidin-5(8H)-one] | 0.3 nM
9 | CN1CCN(C2Cc3ccc(Nc4ncc5c(=O)c(-c6c(Cl)cccc6Cl)cn(C)c5n4)cc3C2)CC1 (stereo not shown) [Example 57, 6-(2,6-dichlorophenyl)-8-methyl-2-{[2-(4-methylpiperazin-1-yl)-2,3-dihydro-1H-inden-5-yl]amino}pyrido[2,3-d]pyrimidin-5(8H)-one] | 0.9 nM
10 | CN1Cc2cc(Nc3ncc4c(=O)c(-c5c(F)cccc5Cl)cn(C)c4n3)ccc2C1(C)C [Example 70, 6-(2-chloro-6-fluorophenyl)-8-methyl-2-[(1,1,2-trimethyl-2,3-dihydro-1H-isoindol-5-yl)amino]pyrido[2,3-d]pyrimidin-5(8H)-one] | 0.2 nM
11 | CN(C)C1Cc2ccc(Nc3ncc4c(=O)c(-c5c(Cl)cccc5Cl)c[nH]c4n3)cc2C1 (stereo not shown) [Example 41, 6-(2,6-dichlorophenyl)-2-{[2-(dimethylamino)-2,3-dihydro-1H-inden-5-yl]amino}pyrido[2,3-d]pyrimidin-5(8H)-one] | 0.4 nM
12 | CN1Cc2cc(Nc3ncc4c(=O)c(-c5c(Cl)cccc5Cl)cn(C5CC5)c4n3)ccc2C2(CC2)C1 [Example 17, 8-cyclopropyl-6-(2,6-dichlorophenyl)-2-[(2′-methyl-2′,3′-dihydro-1′H-spiro[cyclopropane-1,4′-isoquinolin]-7′-yl)amino]pyrido[2,3-d]pyrimidin-5(8H)-one] | 0.2 nM
13 | CN1CCN(c2ccc(Nc3ncc4c(=O)c(-c5c(Cl)cccc5Cl)cn(C5CC5)c4n3)cc2)CC1 [Example 10, 8-cyclopropyl-6-(2,6-dichlorophenyl)-2-{[4-(4-methylpiperazin-1-yl)phenyl]amino}pyrido[2,3-d]pyrimidin-5(8H)-one] | < 1 nM
14 | CN(C)CCn1cc(-c2c(Cl)cccc2Cl)c(=O)c2cnc(Nc3ccc(N4CCN(C)CC4)cc3)nc21 [Example 13, 6-(2,6-dichlorophenyl)-8-[2-(dimethylamino)ethyl]-2-{[4-(4-methylpiperazin-1-yl)phenyl]amino}pyrido[2,3-d]pyrimidin-5(8H)-one] | 24 nM
15 | Cn1cc(-c2c(Cl)cccc2Cl)c(=O)c2cnc(Nc3ccc4c(c3)CC(N3CCCC3)C4)nc21 (stereo not shown) [Example 55, 6-(2,6-dichlorophenyl)-8-methyl-2-{[2-(pyrrolidin-1-yl)-2,3-dihydro-1H-inden-5-yl]amino}pyrido[2,3-d]pyrimidin-5(8H)-one] | 0.4 nM
16 | CN1CCN(c2ccc(Nc3ncc4c(=O)c(-c5c(Cl)cccc5Cl)cn(C(C)(C)C)c4n3)cc2)CC1 [Example 28, 8-tert-butyl-6-(2,6-dichlorophenyl)-2-{[4-(4-methylpiperazin-1-yl)phenyl]amino}pyrido[2,3-d]pyrimidin-5(8H)-one] | 19 nM
17 | CN1CCN(c2ccc(Nc3ncc4c(=O)c(-c5c(Cl)cccc5Cl)cn(CC(F)(F)F)c4n3)cc2)CC1 [Example 11, 6-(2,6-dichlorophenyl)-2-{[4-(4-methylpiperazin-1-yl)phenyl]amino}-8-(2,2,2-trifluoroethyl)pyrido[2,3-d]pyrimidin-5(8H)-one] | 3 nM
18 | CN(C)C1Cc2ccc(Nc3ncc4c(=O)c(-c5c(Cl)cccc5Cl)cn(C)c4n3)cc2C1 (stereo not shown) [Example 22, 6-(2,6-dichlorophenyl)-2-{[2-(dimethylamino)-2,3-dihydro-1H-inden-5-yl]amino}-8-methylpyrido[2,3-d]pyrimidin-5(8H)-one] | 0.6 nM
19 | CN1CCC(Oc2ccc(Nc3ncc4c(=O)c(-c5c(Cl)cccc5Cl)cn(C)c4n3)cc2)CC1 [Example 68, 6-(2,6-dichlorophenyl)-8-methyl-2-({4-[(1-methylpiperidin-4-yl)oxy]phenyl}amino)pyrido[2,3-d]pyrimidin-5(8H)-one] | 0.4 nM
20 | CN(C)C1CCN(C2Cc3ccc(Nc4ncc5c(=O)c(-c6c(Cl)cccc6Cl)cn(C)c5n4)cc3C2)CC1 (stereo not shown) [Example 72, 6-(2,6-dichlorophenyl)-2-({2-[4-(dimethylamino)piperidin-1-yl]-2,3-dihydro-1H-inden-5-yl}amino)-8-methylpyrido[2,3-d]pyrimidin-5(8H)-one] | 0.5 nM
21 | COc1ccc(Cn2cc(-c3c(Cl)cccc3Cl)c(=O)c3cnc(Nc4ccc5c(c4)CN(C)CC54CC4)nc32)cc1 [Example 29, 6-(2,6-dichlorophenyl)-8-(4-methoxybenzyl)-2-[(2′-methyl-2′,3′-dihydro-1′H-spiro[cyclopropane-1,4′-isoquinolin]-7′-yl)amino]pyrido[2,3-d]pyrimidin-5(8H)-one] | 6.4 nM
22 | CN1CCC(Nc2ccc(Nc3ncc4c(=O)c(-c5c(F)cccc5Cl)cn(C)c4n3)cc2)CC1 [Example 69, 6-(2-chloro-6-fluorophenyl)-8-methyl-2-({4-[(1-methylpiperidin-4-yl)amino]phenyl}amino)pyrido[2,3-d]pyrimidin-5(8H)-one] | 3 nM
